Laboratory results taken from paper PMC6934184, “Selective DNA-PKcs inhibition extends the therapeutic index of localized radiotherapy and chemotherapy” (The Journal of Clinical Investigation, 2019).

Molecular target: T1, FLT3 D835Y (Homo sapiens, UniProt P36888, D835Y)
T1 construct: purchased Thermo Fisher Scientific (Life Technologies) SelectScreen
Test: SelectScreen Z'LYTE
Format: biochemical
Procedure, shortened: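 Compound tested in SelectScreen activity assays, Z'LYTE for CSF1R, CDK1/cyclin B and MAP2K6 and Adapta for CAMK1. ATP for CAMK1 was listed as 10, and Km app was used for CSF1R. Results are expressed in percent.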

## CN(C(=O)CN1CCOCC1)c1ccc2sc3c(-c4cccc5c(=O)cc(N6CC7CCC(C6)O7)oc45)cccc3c2c1 [NU5455]
  inhibition at 1 µM: -3.9%
